Tests used:
[1] = test system: RAW264.7 murine macrophage cell line, nitric oxide production; experiment: Inhibition of nitric oxide production in LPS-stimulated RAW264.7 macrophages (Griess reaction); isobologram for combinations; assay type: cell-based
Description: (§1) The anti-inflammatory effect of a mixture of Cajanus in combination with glucosamine sulfate was determined in cellular assays by measuring the inhibition of the synthesis of nitric oxide and/or pro-inflammatory prostaglandins (PGE2). PGE2 plays a critical role in the inflammation process, while nitric oxide (NO) is a hallmark of inflammation in various chronic inflammatory diseases including various forms of arthritis, gastro-intestinal diseases and metabolic syndrome X (Creamer P et al 1997 Lancet 350:503-508; Vuolteenaho et al. 2007 Scand. J Rheumatology 36:247-258).
(§2) The effects on the inflammatory response were tested in cellular assays using a murine macrophage cell line, RAW264.7. […]
Concentrations of nitrite were determined by the Griess reaction using sodium nitrite as standard. Briefly, 50 ul of supernatant was mixed with Griess reagent 1 (25 uL) and Griess reagent 2 (25 uL), centrifuged and the optical density at 540 nm determined. PGE2 secreted into the cell culture medium was determined by EIA obtained from Cayman Chemicals (Ann Harbor, Wis., USA) and used according to the manufacturer's instructions. […] IC50 values for LPS-stimulated cells were calculated using a […] least-square fitting equation [y=A+((B−A)/(1+((C−x)̂D))] for best-fit curves (Excel fit software program). […]

[2] = test system: RAW264.7 murine macrophage cell line, PGE2 production; experiment: Inhibition of PGE2 synthesis in LPS-stimulated RAW264.7 macrophages (EIA); assay type: cell-based
Description: as §1, §2
Concentrations of nitrite were determined by the Griess reaction using sodium nitrite as standard. Briefly, 50 ul of supernatant was mixed with Griess reagent 1 (25 uL) and Griess reagent 2 (25 uL), centrifuged and the optical density at 540 nm determined. PGE2 secreted into the cell culture medium was determined by EIA obtained from Cayman Chemicals (Ann Harbor, Wis., USA) and used according to the manufacturer's instructions. […] IC50 values for LPS-stimulated cells were calculated using a […] least-square fitting equation [y=A+((B−A)/(1+((C−x)̂D))] for best-fit curves (Excel fit software program).

[3] = Mus musculus, single substances, LPS 1 ug/ml, 24 hours, RAW264.7

Q: How did the “effect on NO production (in words)” value ([1]; LPS-stimulated RAW264.7) turn out when `N[C@H]1C(O)O[C@H](CO)[C@@H](O)[C@@H]1O.O=S(=O)(O)O` (stereo partly shown) [Glucosamine sulfate] was run?
A: no or only a marginal anti-inflammatory

Q: What about the IC50 [1, 3] of the same compound?
A: > 100 mg/L

Q: What about the “effect on PGE2 production (in words)” value ([2]; LPS-stimulated RAW264.7) of the same compound?
A: no or only a marginal anti-inflammatory

Q: And the IC50 [2, 3]?
A: > 100 mg/L
